Experimental data as given in patent US20250034139A1, “AMINE COMPOUNDS HAVING ANTI-INFLAMMATORY, ANTIFUNGAL, ANTIPARASITIC, AND ANTICANCER ACTIVITY” (PHARMA CINQ, LLC, priority 2013, published 2025).

Tests used:
[1] = system: 4T1 murine breast cancer cells; experiment: Example S: in vitro anticancer screen, 4T1 cells, Wst1; type: cell-based, mouse; conditions: Mus musculus, 4T1, 18 h, 18 hr, Wst1; for viability at 1 µM: read-out: 4T1 1 μM, percent of cancer cell survival relative to vehicle treated cells; for viability at 5 µM: read-out: 4T1 5 μM, percent of cancer cell survival relative to vehicle treated cells
In short: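 4T1 cells seeded at 1×10^4/well were exposed to compound at 1 μM or 5 μM for 18 hr after plating. Wst1 tetrazolium dye was then added for about 2 hr and absorbance read at 450 nm (reference 630 nm). Values are percent survival relative to vehicle-treated cells.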

[2] = system: THP-1 cells; experiment: Example D: LPS-triggered THP-1 cell death assay, acute/5-hour and chronic/48-hour; type: cell-based, Human; conditions: 10 ng/ml LPS, 0.1 μM test compound, 48 hours
Description: Compounds of the invention were tested at 0.1 μM versus AC in the LPS-triggered THP-1 cell death assay. Both acute/5-hour and chronic/48-hour phases of cell death were assessed. Compounds were screened in batches with DMSO as the negative control and AC as the high activity control.

[3] = system: PC-3 prostate cancer cells; experiment: Example T: sensitisation of PC-3 cells to doxorubicin, oxaliplatin, paclitaxel or vincristine, Wst1; type: cell-based, human; conditions: PC-3 cells, 72 hours; for viability at 0.4 µM: compound 0.4 μM alone; for Doxorubicin 3.5 μM: percent cell survival / Oxaliplatin 100 μM: percent cell survival / Paclitaxel 50 μM: percent cell survival / Vincristine 100 nM: percent cell survival: chemotherapy agent alone normalized to 100%; for viability at 2.5 µM: compound 2.5 μM alone
[4] = system: PC3 human prostate cancer cells; experiment: Example S: in vitro anticancer screen, PC-3 cells, Wst1; type: cell-based; conditions: Homo sapiens, PC-3, approximately 20 hours, Wst1, read-out: PC-3, percent of cancer cell survival relative to vehicle treated cells
Description: Activity against PC3 human prostate cancer cells in vitro was assessed by a similar method. PC-3 prostate cancer cells were plated at 2×10^4 cells/well in 96 well flat bottom tissue culture plates, and incubated for approximately 20 hours with vehicle or test compounds at concentrations of 0.4, 0.5 or 2.5 μM as indicated for specific compounds in the right-hand column of Table 37. A 1/10th volume of Wst1 dye was added/well and incubated for two hours in the cell culture incubator. Samples were analyzed in triplicate on an EL800 Universal Microplate Reader at 450 nm, reference wavelength 630 nm.
Numerical values in the Table 37 represent percent of cancer cell survival relative to vehicle treated cells at the indicated concentrations, with values under 100 indicating anticancer cytotoxic activity at the drugs concentrations tested.

[5] = Homo sapiens, Wst1, vehicle = 100, read-out: No Chemo: percent cell survival
[6] = compound 0.4 μM + doxorubicin 3.5 μM
[7] = compound 0.4 μM + oxaliplatin 100 μM
[8] = compound 0.4 μM + paclitaxel 50 μM
[9] = compound 0.4 μM + vincristine 100 nM
[10] = compound 2.5 μM + doxorubicin 3.5 μM
[11] = compound 2.5 μM + oxaliplatin 100 μM
[12] = compound 2.5 μM + paclitaxel 50 μM
[13] = compound 2.5 μM + vincristine 100 nM

Row | SMILES | viability at 1 µM [1] [%] | viability at 5 µM [1] [%] | Viable cell percent change, Chronic/48-hour, Mean [2] [%] | viability at 0.4 µM [3, 5] [%] | Doxorubicin 3.5 μM: percent cell survival [3, 6] [%] | Oxaliplatin 100 μM: percent cell survival [3, 7] [%] | Paclitaxel 50 μM: percent cell survival [3, 8] [%] | Vincristine 100 nM: percent cell survival [3, 9] [%] | viability at 0.4 µM [4] [%] | viability at 2.5 µM [3, 5] [%] | Doxorubicin 3.5 μM: percent cell survival [3, 10] [%] | Oxaliplatin 100 μM: percent cell survival [3, 11] [%] | Paclitaxel 50 μM: percent cell survival [3, 12] [%] | Vincristine 100 nM: percent cell survival [3, 13] [%] | viability at 2.5 µM [4] [%] | also measured
1 | Fc1ccccc1OCCCCCCCCNc1ccnc2ccccc12 [DB, N-[8-(2-Fluorophenoxy)octyl]quinolin-4-amine] | 20.1 | 22.2 | 20.47 | 24.7 | 56 | 62.3 | 40.3 | 29.6 | 24.7 | – | – | – | – | – | – | –
2 | c1ccc(Oc2ccccc2Nc2ccnc3ccccc23)cc1 [DF, N-(2-Phenoxyphenyl)quinolin-4-amine] | 27.1 | 20.8 | 39.26 | 102 | 88.7 | 96.5 | 89.4 | 95.4 | 102 | – | – | – | – | – | – | –
3 | c1ccc(COc2ccc(Nc3ccnc4ccccc34)cc2)cc1 [DJ, N-[4-(Benzyloxy)phenyl]quinolin-4-amine] | 89 | 66.9 | 22.32 | – | – | – | – | – | – | 85.9 | 116.2 | 137.1 | 137.1 | 115.3 | 85.9 | –
4 | CCCCCCOc1ccc(Nc2ccnc3ccccc23)cc1 [DL, N-[4-(Hexyloxy)phenyl]quinolin-4-amine] | 70.9 | 21 | 61.01 | – | – | – | – | – | – | 43 | 193.5 | 172.6 | 164.8 | 164.9 | 43 | –
5 | c1ccc(COc2cccc(Nc3ccnc4ccccc34)c2)cc1 [DM, N-[3-(Benzyloxy)phenyl]quinolin-4-amine] | 128 | 47.8 | 34.67 | – | – | – | – | – | – | 45.6 | 79.2 | 91.1 | 105.4 | 92.1 | 45.6 | –
6 | CCCCCCOc1cccc(Nc2ccnc3ccccc23)c1 [DN, N-[3-(Hexyloxy)phenyl]quinolin-4-amine] | 104 | 56.7 | 77.15 | – | – | – | – | – | – | 31.7 | 64.1 | 78 | 64.7 | 72.3 | 31.7 | –
7 | c1ccc(COc2ccccc2Nc2ccnc3ccccc23)cc1 [DO, N-[2-(Benzyloxy)phenyl]quinolin-4-amine] | 116 | 35.2 | 36.46 | – | – | – | – | – | – | 59.2 | 79.9 | 89.9 | 93.4 | 90.1 | 59.2 | –
8 | CCCCCCOc1ccccc1Nc1ccnc2ccccc12 [DP, N-[2-(Hexyloxy)phenyl]quinolin-4-amine] | 72.5 | 25.4 | 42.36 | – | – | – | – | – | – | 37.5 | 65.3 | 77.4 | 64.6 | 74.1 | 37.5 | –
9 | c1ccc(CCNc2ccnc3ccccc23)cc1 [DR, N-Phenethylquinolin-4-amine] | 77.9 | 27.2 | 27.12 | – | – | – | – | – | – | 31.5 | 59.9 | 68.7 | 49.2 | 35.5 | 31.5 | –
10 | CCCCCCOc1ccccc1CNc1ccnc2ccccc12 [DS, N-[2-(Hexyloxy)benzyl]quinolin-4-amine] | 35.6 | 25.5 | 56.67 | 70 | 86.4 | 97 | 97.1 | 98.6 | 70 | – | – | – | – | – | – | –
11 | O=C(NCCCCCCCCNc1ccnc2ccccc12)c1ccccc1 [DY, N-[8-(Quinolin-4-ylamino)octyl]benzamide] | 88.9 | 60.5 | 45.25 | – | – | – | – | – | – | – | – | – | – | – | – | viability at 5 µM ([3]; Homo sapiens, compound 5 μM alone, Wst1, vehicle = 100, read-out: No Chemo: percent cell survival): 16.1%; Doxorubicin 3.5 μM: percent cell survival ([3]; compound 5 μM + doxorubicin 3.5 μM): 21.2%; Oxaliplatin 100 μM: percent cell survival ([3]; compound 5 μM + oxaliplatin 100 μM): 20.6%; Paclitaxel 50 μM: percent cell survival ([3]; compound 5 μM + paclitaxel 50 μM): 23.3%; Vincristine 100 nM: percent cell survival ([3]; compound 5 μM + vincristine 100 nM): 18.3%; viability at 5 µM ([4]; 5 μM): 16.1%
12 | COc1cccc(C(=O)NCCCCCCCCNc2ccnc3ccccc23)c1 [DZ, 3-Methoxy-N-[8-(quinolin-4-ylamino)octyl]benzamide] | 23.7 | 17.4 | 73.5 | 84.8 | 85.6 | 86.7 | 71.8 | 89 | 84.8 | – | – | – | – | – | – | –
13 | COc1ccc(C(=O)NCCCCCCCCNc2ccnc3ccccc23)cc1 [EA, 4-Methoxy-N-[8-(quinolin-4-ylamino)octyl]benzamide] | 31.1 | 36.8 | 73.48 | 108 | 87.8 | 89 | 73.5 | 84.5 | 108 | – | – | – | – | – | – | –
14 | O=C(NCCCCCCCCNc1ccnc2ccccc12)c1ccccn1 [EE, N-[8-(Quinolin-4-ylamino)octyl]picolinamide] | 24 | 18.1 | 24.32 | 34 | 66.4 | 70.8 | 45.3 | 47.1 | 34 | – | – | – | – | – | – | –
15 | O=C(NCCCCCCCCNc1ccnc2ccccc12)c1ccncc1 [EG, N-[8-(Quinolin-4-ylamino)octyl]isonicotinamide] | 34.7 | 27.7 | 60.59 | 92.2 | 91.3 | 96.2 | 95.3 | 88.5 | 92.2 | – | – | – | – | – | – | –
16 | CCCCCCNc1ccnc2ccccc12 [EI, N-Hexylquinolin-4-amine] | 95 | 45.8 | 39.53 | – | – | – | – | – | – | 31.2 | 66.1 | 75.1 | 50.1 | 69.5 | 31.2 | –
